Reference: PMC10385850, “Modified Hederagenin Derivatives Demonstrate Ex Vivo Anthelmintic Activity against Fasciola hepatica” (Pharmaceutics, 2023)
“Also recorded” adds a separate entry of the source.

System: F. hepatica newly excysted juveniles (NEJs), Italian strain
Assay: Ex vivo screen against newly excysted juveniles (NEJs), phenotype and motility scoring
Type: cell-based, Fasciola hepatica
Settings: 10 µM; for Average motility of 25 NEJs with 95% CI, 24 hours / Average motility of 25 NEJs with 95% CI, 48 hours / Average motility of 25 NEJs with 95% CI, 72 hours: motility score 1 good/normal to 5 no movement; for Average phenotype of 25 NEJs with 95% CI, 24 hours / Average phenotype of 25 NEJs with 95% CI, 48 hours / Average phenotype of 25 NEJs with 95% CI, 72 hours: ultrastructure score 1 normal to 6 dead or dissolved; for Activity against NEJs (first screen), in words: 72 h co-culture
Method: […] The NEJs were excysted from metacercariae and assayed at 10 μM (in 0.1% DMSO) final concentration alongside negative (0.1% DMSO) and positive (10 μM TCBZ, in 0.1% DMSO) controls as previously described. The MC and IVL compound series were screened separately.
The motility (1—good/normal; 2—moderate; 3—low; 4—very little; 5—no movement) and phenotypic (ultrastructural changes) scores were noted according to a previously described scoring matrix (Figure S1 and Table S2).

Structure (SMILES)	Average motility of 25 NEJs with 95% CI, 24 hours	Average phenotype of 25 NEJs with 95% CI, 24 hours	Average motility of 25 NEJs with 95% CI, 48 hours	Average phenotype of 25 NEJs with 95% CI, 48 hours	Average motility of 25 NEJs with 95% CI, 72 hours	Average phenotype of 25 NEJs with 95% CI, 72 hours	Activity against NEJs (first screen), in words
CC1(C)CC[C@]2(N=C=O)CC[C@]3(C)C(=CCC4[C@@]5(C)CCC6OC(C)(C)OC[C@@]6(C)C5CC[C@]43C)C2C1 (stereo partly drawn) [MC015, (4aR,6aR,6bS,8aS,14bR)-8a-Isocyanato-2,2,4a,6a,6b,11,11,14b-octamethyl-4a,4b,5,6,6a,6b,7,8,8a,9, 10,11,12,12a,14,14a,14b,15,16,16a-eicosahydro-4H-piceno[3,4-d][1,3]dioxine]	2.56 (2;3)	2.24 (1.6;2.8)	3.08 (2.4;3.6)	2.84 (2;3.5)	3.12 (2.4;3.7)	3.56 (2.7;4.3)	None of the three passed the first screen
CC1(C)CC[C@]2(NC(=O)NCc3ccccc3)CC[C@]3(C)C(=CCC4[C@@]5(C)CCC6OC(C)(C)OC[C@@]6(C)C5CC[C@]43C)C2C1 (stereo partly drawn) [MC017, 1-Benzyl-3-((4aR,6aR,6bS,8aS,14bR)-2,2,4a,6a,6b,11,11,14b-octamethyl-4a,5,6,6a,6b,7,8,9,10,11,12,12a,14,14a,14b,15,16,16a-octadecahydro-4H-piceno[3,4-d][1,3]dioxin-8a(4bH)-yl)urea]	4.12 (3.7;4.5)	3.28 (2.5;4)	4.0 (3.5; 4.4)	4.04 (3.3;4.6)	3.92 (3.3; 4.4)	4.12 (3.4;4.7)	
CCCCOC(=O)N[C@]12CCC(C)(C)CC1C1=CCC3[C@@]4(C)CCC5OC(C)(C)OC[C@@]5(C)C4CC[C@@]3(C)[C@]1(C)CC2 (stereo partly drawn) [MC019, Butyl ((4aR,6aR,6bS,8aS,14bR)-2,2,4a,6a,6b,11,11,14b-octamethyl-4a,5,6,6a,6b,7,8,9,10, 11,12,12a,14, 14a,14b,15,16,16a-octadecahydro-4H-piceno[3,4-d][1,3]dioxin-8a(4bH)-yl)carbamate]	2.24 (1.7;2.7)	2.40 (1.8;2.9)	4.00 (3.7;4.2)	3.20 (2.6;3.7)	4.36 (3.9;4.7)	3.40 (2.7;4)	inactive against NEJs
CCCNC(=O)N[C@]12CCC(C)(C)CC1C1=CCC3[C@@]4(C)CCC5OC(C)(C)OC[C@@]5(C)C4CC[C@@]3(C)[C@]1(C)CC2 (stereo partly drawn) [MC022, 1-((4aR,6aR,6bS,8aS,14bR)-2,2,4a,6a,6b,11,11,14b-Octamethyl-4a,5,6,6a,6b,7,8,9,10,11, 12,12a,14,14a, 14b,15,16,16a-octadecahydro-4H-piceno[3,4-d][1,3]dioxin-8a(4bH)-yl)-3-propylurea]	2.68 (1.9;3.4)	4.60 (4.2;4.9)	4.12 (3.7;4.4)	5.08 (4.7;5.4)	4.96 (4.8;5)	5.88 (5.6;6.1)	inactive against NEJs
COC(=O)[C@@H](NC(=O)N[C@]12CCC(C)(C)CC1C1=CCC3[C@@]4(C)CCC5OC(C)(C)OC[C@@]5(C)C4CC[C@@]3(C)[C@]1(C)CC2)C(C)C (stereo partly drawn) [MC027, Methyl (((4aR,6aR,6bS,8aS,14bR)-2,2,4a,6a,6b,11,11,14b-octamethyl-4a,5,6,6a,6b,7,8,9,10, 11,12,12a, 14,14a,14b,15,16,16a-octadecahydro-4H-piceno[3,4-d][1,3]dioxin-8a(4bH)-yl)-carbamoyl)-L-valinate]	3.48 (2.9;3.9)	3.32 (2.5;4.1)	4.72 (4.4;4.9)	4.64 (3.9;5.3)	4.76 (4.4;5)	5.48 (4.9;5.9)	
CC1(C)CC[C@]2(NC(=O)N[C@H]3C(O)O[C@H](CO)[C@@H](O)[C@@H]3O)CC[C@]3(C)C(=CCC4[C@@]5(C)CCC6OC(C)(C)OC[C@@]6(C)C5CC[C@]43C)C2C1 (stereo partly drawn) [MC028, 1-((4aR,6aR,6bS,8aS,14bR)-2,2,4a,6a,6b,11,11,14b-Octamethyl-4a,5,6,6a,6b,7,8,9,10,11, 12,12a,14,14a, 14b,15,16,16a-octadecahydro-4H-piceno[3,4-d][1,3]dioxin-8a(4bH)-yl)-3-((3R,4R,5S,6R)-2,4,5-tri-hydroxy-6-(hydroxymethyl)tetrahydro-2H-pyran-3-yl)urea]	2.32 (1.8;2.7)	2.24 (1.6;2.8)	3.52 (2.9;4)	2.76 (2;3.4)	2.60 (1.9;3.2)	2.72 (2;3.4)	none reached the level required
CC1(C)CC[C@]2(NC(=O)N[C@H]3C(O)O[C@H](CO)[C@@H](O)[C@@H]3O)CC[C@]3(C)C(=CCC4[C@@]5(C)CC[C@H](O)[C@@](C)(CO)C5CC[C@]43C)C2C1 (stereo partly drawn) [MC030, 1-((4aS,6aS,6bR,9R,10S,12aR)-10-Hydroxy-9-(hydroxymethyl)-2,2,6a,6b,9,12a-hexa-methyl-1,3,4,5,6,6a,6b,7,8,8a,9,10,11,12,12a,12b,13,14b-octadecahydropicen-4a(2H)-yl)-3-((3R,4R,5S,6R)-2,4,5-tri-hydroxy-6-(hydroxymethyl)tetrahydro-2H-pyran-3-yl)urea]	3.20 (2.6;3.7)	3.00 (2.2;3.7)	3.92 (3.5;4.2)	3.60 (2.9;4.2)	3.96 (3.4;4.4)	4.00 (3.2;4.7)	none reached the level required; also recorded: low activity
CC(=O)OC[C@]12CCC(C)(C)CC1C1=CCC3[C@@]4(C)CCC5OC(C)(C)OC[C@@]5(C)C4CC[C@@]3(C)[C@]1(C)CC2 (stereo partly drawn) [MC031, ((4aR,6aR,6bS,8aS,14bR)-2,2,4a,6a,6b,11,11,14b-Octamethyl-4a,5,6,6a,6b,7,8,9,10,11,12,12a,14,14a, 14b,15,16,16a-octadecahydro-4H-piceno[3,4-d][1,3]dioxin-8a(4bH)-yl)methyl acetate]	2.96 (2.4;3.4)	2.72 (1.9;3.4)	2.76 (2;3.4)	3.64 (2.9;4.3)	3.44 (2.6;4.2)	4.80 (4.2;5.3)	
